The results in this text go back to publication PMC7073886, “Structure–Bioactivity Relationships of Lapatinib Derived Analogs against Schistosoma mansoni” (ACS Medicinal Chemistry Letters, 2020).

In brackets after ≈: the same amount, converted by molar mass. Like-named read-outs stand apart in the source and are kept apart here.

A short description of data set [1]: Aqueous pH 7.4 solubility. It counts as physicochemical. The note with it: phosphate buffer pH 7.4, 25 °C, 20-24 h, read-out: aq sol (aqueous solubility).
The nature of data set [2]: Human plasma protein binding (equilibrium dialysis). It counts as in vitro ADME. The note with it: for human PPB (plasma protein binding): 10 µM, 37 °C.
Data set [3] can be described thus: Log D7.4 shake-flask octanol-water. It counts as physicochemical. The note with it: pH 7.4.
A further data set is described as follows: Rat hepatocyte Clint. It counts as in vitro ADME. The note with it: rat hepatocytes, intrinsic clearance.
A short description of data set [4]: Human liver microsomal Clint. Format: in vitro ADME. The note with it: human liver microsomes, intrinsic clearance.
The test system of another data set is adult S. mansoni. As to the kind of experiment: Phenotypic screen of adult S. mansoni worms, severity scores and descriptors. Format: cell-based, Schistosoma mansoni. The note with it: for Descriptors (10 µM) 1 h / Severity Scores (10 μM) 1 h / Descriptors (10 µM) 5 h / Severity Scores (10 μM) 5 h / Descriptors (10 µM) 24 h / Severity Scores (10 μM) 24 h / Descriptors (10 µM) 48 h / Severity Scores (10 μM) 48 h: adult S. mansoni; for Descriptors (10 µM) 1 h / Descriptors (10 µM) 5 h / Descriptors (10 µM) 24 h / Descriptors (10 µM) 48 h: phenotypic descriptors; for Severity Scores (10 μM) 1 h / Severity Scores (10 μM) 5 h / Severity Scores (10 μM) 24 h / Severity Scores (10 μM) 48 h: scale 0 (no activity) to 4 (maximal activity). Summed up: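 Adult S. mansoni (NMRI isolate, ≥42 days old) were co-incubated with compounds and changes in motility, density, shape and adherence recorded visually over time and concentration. Descriptors converted to severity scores from 0 (no activity) to 4 (maximal).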

The test system of another data set is HepG2 cells. Kind of data set: Drug toxicity to HepG2 cells (MTT). Format: cell-based. The note with it: HepG2 cells, 48 hours incubation, MTT.

As to `CN1CCCN(c2ncc(-c3ccc4nccc(Nc5ccncn5)c4c3)cn2)CC1` [S3j], in data set [1], the solubility came to 910 µM (≈ 375 µg/mL). For the same molecule, the “human PPB (plasma protein binding)” value in data set [2] came to 61%. Moreover, the “LogD 7.4” value in data set [3] is 2.2. In addition, in the data set “Rat hepatocyte Clint”, the “RH CLint” value came to 19 µL/min/10^6 cells. In data set [4], the “HLM Clint” value is recorded as 87 μL/min/mg protein. Moreover, in the data set on adult S. mansoni, the “Descriptors (10 µM) 1 h” value is listed as “none”, the “Descriptors (10 µM) 5 h” value is “none” and the “Descriptors (10 µM) 24 h” value was “none”. In addition, in the data set with adult S. mansoni (10 μM), the “Severity Scores (10 μM) 1 h” value came out at 0, the “Severity Scores (10 μM) 5 h” value is on record as 0 and the “Severity Scores (10 μM) 24 h” value is listed as 0. Also, the “HepG2 TC50” value in the data set on HepG2 cells is more than 37 µM.

On to `O=S(=O)(c1ccc(-c2ccc3nccc(NCC4CCOCC4)c3c2)cc1)N1CCOCC1` [S3g], for which the solubility in data set [1] was 38 µM (≈ 17.8 µg/mL). Also, in data set [2], the “human PPB (plasma protein binding)” value is listed as 74%. For the same molecule, the “LogD 7.4” value in data set [3] is listed as 2.7. For the same molecule, the “RH CLint” value in “Rat hepatocyte Clint” came out at 72 µL/min/10^6 cells. Besides, the “HLM Clint” value in data set [4] is 70 μL/min/mg protein. Besides, in the data set with adult S. mansoni, the “Descriptors (10 µM) 1 h” value is “none”, the “Descriptors (10 µM) 5 h” value is “none”, the “Descriptors (10 µM) 24 h” value is “none” and the “Descriptors (10 µM) 48 h” value was “none”. Besides, in the data set on adult S. mansoni (10 μM), the “Severity Scores (10 μM) 1 h” value is listed as 0, the “Severity Scores (10 μM) 5 h” value was determined as 0, the “Severity Scores (10 μM) 24 h” value stood at 0 and the “Severity Scores (10 μM) 48 h” value was found to be 0. Also, the “HepG2 TC50” value in the data set on HepG2 cells is 32 µM.

`O=S(=O)(c1ccc(-c2ccc3nccc(N[C@@H]4CCCC[C@H]4O)c3c2)cc1)N1CCOCC1` (relative stereo) [S3d]: the solubility in data set [1] worked out at 140 µM (≈ 65.5 µg/mL). Besides, in data set [2], the “human PPB (plasma protein binding)” value amounted to 72%. For the same molecule, the “LogD 7.4” value in data set [3] stood at 2.4. Also, the “RH CLint” value in “Rat hepatocyte Clint” worked out at 30 µL/min/10^6 cells. The “HLM Clint” value in data set [4] is given as 43 μL/min/mg protein. Moreover, in the data set on adult S. mansoni, the “Descriptors (10 µM) 1 h” value is listed as “none”, the “Descriptors (10 µM) 5 h” value was “none”, the “Descriptors (10 µM) 24 h” value is “none” and the “Descriptors (10 µM) 48 h” value is reported as “none”. Further, in the data set with adult S. mansoni (10 μM), the “Severity Scores (10 μM) 1 h” value was determined as 0, the “Severity Scores (10 μM) 5 h” value is recorded as 0, the “Severity Scores (10 μM) 24 h” value was determined as 0 and the “Severity Scores (10 μM) 48 h” value is given as 0. In addition, in the data set on HepG2 cells, the “HepG2 TC50” value is 32 µM.

`O=S(=O)(c1ccc(-c2ccc3nccc(Nc4ccncn4)c3c2)cc1)N1CCOCC1` [S3a]: the solubility in data set [1] worked out at 1.4 µM (≈ 0.627 µg/mL). Moreover, in data set [2], the “human PPB (plasma protein binding)” value is reported as 96%. The “LogD 7.4” value in data set [3] amounted to 3.3. Further, the “RH CLint” value in “Rat hepatocyte Clint” is recorded as 32 µL/min/10^6 cells. The “HLM Clint” value in data set [4] was found to be 210 μL/min/mg protein. For the same molecule, in the data set with adult S. mansoni, the “Descriptors (10 µM) 1 h” value is recorded as “none”, the “Descriptors (10 µM) 5 h” value is “none”, the “Descriptors (10 µM) 24 h” value is “none” and the “Descriptors (10 µM) 48 h” value was “none”. Moreover, in the data set on adult S. mansoni (10 μM), the “Severity Scores (10 μM) 1 h” value is 0, the “Severity Scores (10 μM) 5 h” value worked out at 0, the “Severity Scores (10 μM) 24 h” value amounted to 0 and the “Severity Scores (10 μM) 48 h” value is on record as 0. Also, the “HepG2 TC50” value in the data set with HepG2 cells is more than 34 µM.

For `O=S(=O)(c1ccc(-c2ccc3nccc(Nc4ncccn4)c3c2)cc1)N1CCOCC1` [S3b], in data set [1] (aqueous buffer, thermodynamic from solid), the solubility was found to be 34 µM (≈ 15.2 µg/mL). Besides, the fraction unbound at 10 µM in data set [2] (pH 7.4, 37 °C, read-out: human PPB (plasma protein binding) (converted)) is 0.01. Besides, the logD in data set [3] is 3.7. Moreover, the hepatocyte CLint in “Rat hepatocyte Clint” (read-out: RH CLint) was 85 µL/min/1e6 cells. In addition, in data set [4] (read-out: HLM Clint), the microsomal CLint came to 270 µL/min/mg. In the data set with adult S. mansoni, the “Descriptors (10 µM) 1 h” value is listed as “S, on sides” and the “Descriptors (10 µM) 5 h” value is recorded as “S, on sides”. In the data set with adult S. mansoni (10 μM), the “Severity Scores (10 μM) 1 h” value is given as 2, the “Severity Scores (10 μM) 5 h” value is given as 2, the “Severity Scores (10 μM) 24 h” value worked out at 3 and the “Severity Scores (10 μM) 48 h” value was determined as 3. Moreover, the “bioactivity against adult S. mansoni” value with adult S. mansoni (adult schistosomes, 10 μM) is “moderate activity after 1 h”. Besides, the “HepG2 TC50” value with HepG2 cells is more than 34 µM.
